Measurements: publication PMC9400856 (Molecular Informatics, 2022)

Target: mouse β3-adrenergic receptor (mβ3-AR) (Mus musculus, UniProt P25962)
Experiment: cAMP accumulation
Assay type: cell-based

mouse β3-adrenergic receptor (mβ3-AR), sequence (P25962 whole entry): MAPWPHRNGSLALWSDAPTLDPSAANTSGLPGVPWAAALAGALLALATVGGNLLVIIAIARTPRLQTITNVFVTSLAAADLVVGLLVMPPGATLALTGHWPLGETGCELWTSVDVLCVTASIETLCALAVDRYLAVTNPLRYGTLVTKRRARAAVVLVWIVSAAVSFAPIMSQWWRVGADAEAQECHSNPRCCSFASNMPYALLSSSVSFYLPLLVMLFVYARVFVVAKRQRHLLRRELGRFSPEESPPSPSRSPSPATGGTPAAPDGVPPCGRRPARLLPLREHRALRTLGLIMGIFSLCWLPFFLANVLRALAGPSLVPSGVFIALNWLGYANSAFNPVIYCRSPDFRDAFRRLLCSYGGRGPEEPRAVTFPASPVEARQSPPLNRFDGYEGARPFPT

C[C@H](Cc1ccc(OCC(=O)O)cc1)NC[C@H](O)c1cccc(Cl)c1 [compound 3, BRL37344]
EC50: 0.692 nM
